# Where two headings read alike, the source gives them in different places.
# Tests used:
# [1] = Acute toxicity in mice, LD50 oral and intraperitoneal; settings: mouse, in vivo
# From the text: Most of the compounds of the formula (I) have low toxicity, as is apparent from following Table II in which are given the LD50 per os and i.p. in mice.
# [2] = system: collateral arteries; assay: Acute occlusion of the femoral artery: resistance of the collateral arteries, systemic blood pressure, tissue perfusion pressure; assay type: in vivo, dogs
# Description: Thus, with some of the compounds, there was noted an increase of the arterial rate of flow from as low a dosage as 0.1-0.5 mg/kg i.v.
# [3] = ip, read-out: Acute toxicity, intraperitoneal route LD50
# [4] = po, per os, read-out: Acute toxicity, oral route LD50
smiles,measurement,setting,value
"NCC1CCCc2scnc21 (stereo not drawn) [Example 1, 4-Aminomethyl-4,5,6,7-tetrahydro-benzo[d]thiazole]",LD50,[1]; [3],140 mg/kg
same,LD50,[1]; [4],> 200 mg/kg
"CNCC1CCCc2scnc21 (stereo not drawn) [Example 2, 4-(N-Methylaminomethyl)-4,5,6,7-tetrahydro-benzo[d]thiazole]",LD50,[1]; [3],≥ 200 mg/kg
same,LD50,[1]; [4],> 200 mg/kg
"Cc1nc2c(s1)CCCC2CN (stereo not drawn) [Example 3, 2-Methyl-4-aminomethyl-4,5,6,7-tetrahydro-benzo[d]thiazole]",LD50,[1]; [4],> 200 mg/kg
"CNCC1CCc2scnc2C1 (stereo not drawn) [Example 5, 5-(N-Methylaminomethyl)-4,5,6,7-tetrahydro-benzo[d]thiazole]",LD50,[1]; [3],> 200 mg/kg
same,LD50,[1]; [4],> 200 mg/kg
"CNCC1CCc2sc(C)nc2C1 (stereo not drawn) [Example 6, 2-Methyl-5-(N-methylaminomethyl)-4,5,6,7-tetrahydrobenzo[d]thiazole]",decrease of the resistance of the collateral arteries,[2],marked decrease
same,effect on systemic blood pressure,[2],without substantially affecting
same,effect on tissue perfusion pressure,[2],without substantially affecting
same,LD50,[1]; [4],> 200 mg/kg
"CNCC1CCc2nc(C)sc2C1 (stereo not drawn) [Example 7, 2-Methyl-6-(N-methylaminomethyl)-4,5,6,7-tetrahydrobenzo[d]thiazole]",LD50,[1]; [3],> 200 mg/kg
same,LD50,[1]; [4],> 200 mg/kg
"NCC1CCc2ncsc2C1 (stereo not drawn) [Example 8, 6-Aminomethyl-4,5,6,7-tetrahydro-benzo[d]thiazole]",LD50,[1]; [3],> 200 mg/kg
same,LD50,[1]; [4],> 200 mg/kg
"CCNCC1CCc2nc(CC)sc2C1 (stereo not drawn) [Example 9, 2-Ethyl-6-(N-ethylaminomethyl)-4,5,6,7-tetrahydrobenzo[d]thiazole]",LD50,[1]; [3],120 mg/kg
same,LD50,[1]; [4],> 200 mg/kg
"CCCNCC1CCc2ncsc2C1 (stereo not drawn) [Example 10, 6-(N-n-Propylaminomethyl)-4,5,6,7-tetrahydro-benzo[d]thiazole]",LD50,[1]; [3],190 mg/kg
same,LD50,[1]; [4],> 200 mg/kg
"CCCCc1nc2c(s1)CCCC2CNC (stereo not drawn) [Example 11, 2-n-Butyl-4-(N-methylaminomethyl)4,5,6,7-tetrahydro-benzo[d]thiazole]",decrease of the resistance of the collateral arteries,[2],marked decrease
same,effect on systemic blood pressure,[2],without substantially affecting
same,effect on tissue perfusion pressure,[2],without substantially affecting
same,LD50,[1]; [3],58 mg/kg
same,LD50,[1]; [4],≥ 200 mg/kg
"CCCCc1nc2c(s1)CCC(CNC)C2 (stereo not drawn) [Example 12, 2-n-Butyl-5-(N-methylaminomethyl)-4,5,6,7-tetrahydrobenzo[d]thiazole]",LD50,[1]; [3],140 mg/kg
same,LD50,[1]; [4],> 200 mg/kg
"CNCC1CCc2sc(C(C)C)nc2C1 (stereo not drawn) [Example 13, 2-Isopropyl-5-(N-methylaminomethyl)-4,5,6,7-tetrahydrobenzo[d]thiazole]",LD50,[1]; [3],140 mg/kg
same,LD50,[1]; [4],> 200 mg/kg
"NCC1CCc2scnc2C1 (stereo not drawn) [Example 14, 5-aminomethyl-4,5,6,7-tetrahydro-benzo[d]thiazole]",LD50,[1]; [3],> 200 mg/kg
same,LD50,[1]; [4],≥ 200 mg/kg
"Cc1nc2c(s1)CCC(CN)C2 (stereo not drawn) [Example 15, 2-methyl-5-aminomethyl-4,5,6,7-tetrahydro-benzo[d]thiazole]",LD50,[1]; [3],> 200 mg/kg
same,LD50,[1]; [4],> 200 mg/kg
"CNCC1CCc2ncsc2C1 (stereo not drawn) [Example 16, 6-(N--methylaminomethyl)-4,5,6,7-tetrahydro-benzo[d]thiazole]",LD50,[1]; [3],75 mg/kg
same,LD50,[1]; [4],170 mg/kg
"Cc1nc2c(s1)CC(CN)CC2 (stereo not drawn) [Example 17, 2-methyl-6-aminomethyl-4,5,6,7-tetrahydro-benzo[d]thiazole]",LD50,[1]; [3],> 200 mg/kg
same,LD50,[1]; [4],> 200 mg/kg
"CCCCNCC1CCCc2sc(C)nc21 (stereo not drawn) [Example 18, 2-methyl-4-(N--n-butylamino-methyl)-4,5,6,7-tetrahydro-benzo[d]thiazole]",LD50,[1]; [3],58 mg/kg
same,LD50,[1]; [4],> 200 mg/kg
"Cc1nc2c(s1)CCC(CNC(C)C)C2 (stereo not drawn) [Example 19, 2-methyl-5-(N--isopropylamino-methyl)-4,5,6,7-tetrahydro-benzo[d]thiazole]",LD50,[1]; [3],> 200 mg/kg
same,LD50,[1]; [4],> 200 mg/kg
CCCCNCC1CCc2sc(C)nc2C1 (stereo not drawn) [Example 20],LD50,[1]; [3],58 mg/kg
same,LD50,[1]; [4],145 mg/kg

# — patent publication US4423056A, “5(Aminomethyl)-4,5,6,7-tetrahydro[d]thiazole containing compositions for and medical use in treating circulatory insufficiencies” (Laboratoires Jacques Logeais, priority 1979, dated 1983)
